Eight compounds from patent publication US20260240999A1, “METHODS FOR EX VIVO ENRICHMENT AND EXPANSION OF TUMOR REACTIVE T CELLS AND RELATED COMPOSITIONS THEREOF” (H. LEE MOFFITT CANCER CENTER AND RESEARCH INSTITUTE, INC., priority 2022, published 2026) can be followed below.

Test [1] concerns PBMC from three healthy donors. The test is described as follows: T cell expansion with Fas ligand or caspase inhibition, anti-CD3 stimulation. To be noted: OKT3 activation. The test is classed as cell-based, human. As for the experimental part: Cells were then seeded into a 24-well gas permeable cell culture plate at a density of 2.14×10^5 cells/mL (7.5×10^5 cells/cm^2). Cells were activated for 48 hours using 50 ng/ml OKT3, a human anti-CD3 monoclonal antibody, and were additionally treated with agents as described below.
Culture wells were assigned to one of five treatment groups, as follows: (1) a no inhibitor culture control which contained only cellular media as described with no additional apoptotic modulator; (2) 2 μM of the pan-caspase inhibitor Z-VAD-FMK added to the media only on culture day 0 (transient); (3) 2 μM of the pan-caspase inhibitor Z-VAD-FMK added on culture day 0 and additionally replenished at the same concentration with each media exchange (continuous); (4). 500 ng/ml of Fas ligand (FasL) blocking antibody NOK-1 (BioLegend) added to the culture media only on day 0 (transient); or (5) 500 ng/ml of Fas ligand (FasL) blocking antibody NOK-1 (BioLegend) added to the culture media […] replenished each media exchange (continuous inhibition).
Cultures were maintained for at least 13 days with a 50% media exchange every other day beginning on culture day 2. Cell counts and viability were monitored every other day. […]

Test [2] has as its system PBMC from two healthy donors. The test is described as follows: T cell expansion with Fas ligand or caspase inhibition, anti-CD3/anti-CD28 stimulation. To be noted: continuous anti-CD3/anti-CD28 activation. The test is classed as cell-based, human. As for the experimental part: Cells were then seeded into a 24-well gas permeable cell culture plate at a density of 1.5×10^5 cells/mL (5.0×10^5 cells/cm^2).
Culture wells were assigned to one of two treatment groups, transient or continuous activation. For transient activation, anti-CD3/anti-CD28 paramagnetic beads (Dyanbeads™) were added to the culture media at a ratio of 1 bead per cell starting on culture day 0, and then were removed during media exchange on day 2. For continuous activation, anti-CD3/anti-CD28 paramagnetic beads (Dyanbeads™) were added to the culture media at a ratio of 1 bead per cell starting on culture day 0, and then added again on Day 4, and again on Day 6 at a ratio of 1 bead per cell. The anti-CD3/anti-CD28 paramagnetic beads were not removed on Day 2, 4 or 6.
For both the continuous and transient activation, culture wells were assigned to one of five treatment groups as described above for 10 conditions total per donor.
Cell counts and viability were monitored every other day. When cells reached 3×10^6 cells/ml, 1.5×10^6 cells were sub-cultured into a new well of a 24-well gas permeable culture plate with 7 mL final volume of medium and the culture continued as described above.

Test [3] has as its system previously expanded human T cells from three healthy donors. The test is described as follows: Effect of T cell adjuvants on T cell viability (total viable CD3+ cell count). The test is classed as cell-based. The settings on record: for viable cell counts: vs DMSO treatment control, irrespective of activation status, 6 days. As for the experimental part: Cells were expanded from PBMC derived from Ficoll gradient separation from three healthy donor's apheresis material. […] Because the studies were carried out in healthy donors, stimulation of the T cells was carried out with anti-CD3 (OKT3) stimulation in order to mimic conditions present in the tumor microenvironment (TME).
Cells were next seeded into gas permeable 100M culture vessels and expanded for 7-14 days to achieve a large bank of T cells, and cryopreserved. […] Half of wells were additionally supplemented with 50 ng/mL OKT3, a human anti-CD3 monoclonal antibody. In total, 15 test adjuvant agents were tested for their impact on cell viability in the presence and absence of anti-CD3 activation (see Table E3). Cells were cultured for 6 days total, including a 50% medium exchange on culture day 3, and monitored for total viable CD3+ cell count.

For test [4] the test system is unchanged. The test is described as follows: Cytokines, modulators and agonist antibodies with IL-2 on T cell number and memory phenotype. The test is classed as cell-based. As for the experimental part:
PBMC from three healthy donors were activated, expanded, and cryopreserved as described in Example 11. […] As previously described, stimulation of the healthy donor T cells prior to cryopreservation were carried out with anti-CD3 (OKT3) stimulation in order to mimic conditions present in the tumor microenvironment (TME).
Cells were next seeded into gas permeable 100M culture vessels and expanded for 7-14 days to achieve a large bank of T cells, and cryopreserved.
Cells were maintained in culture for 6 days, with a 50% medium exchange occurring at 3 days post culture initiation.
At the end of the culture period for all culture conditions, cells were assessed for cell count and sub-phenotypes of naïve and central memory T cells by flow cytometry by staining with CD45RA and CCR7 (naïve, CD45RA+ CCR7+; “central” memory, CD45RA-CCR7+).

For test [5], the system named is CRC tumor fragment and SCS cultures. The test is described as follows: Caspase inhibition in tumor processing. Format: cell-based, human. Here is the method: Half of cultures contained media additionally supplemented with 2 μM of pan-caspase inhibitor Z-VAD-FMK which was replenished at each media exchange. Cultures were incubated at about 37° C. for a minimum of 18 days with a 50% medium exchange occurring every 2-3 days following culture day 5. Cell counts were performed on day 5 and at each medium exchange using the NC-200 Automated Cell Counter (ChemoMetec).

The subject of test [6] is cells processed from melanoma tumor fragments. The test can be described thus: Anti-CD3 stimulation on expansion of tumor-derived cells. To be noted: presence or absence of 50 ng/mL OKT3; 14-31 days. The test is classed as cell-based, human. Here is the method: Cells processed from melanoma tumor fragments as described in Examples 1 and 2, were cultured in the presence or absence of 50 ng/mL OKT3, a human anti-CD3 monoclonal antibody. Cell cultures were carried out to between 14 and 31 days, such as between 14 and 21 days, in either a conventional 6-well plate or a gas permeable culture plate with RPMI or OpTmizer media. […] About 50% of cellular media was exchanged every other day beginning on the 5th day of culture as described previously. Cells were then counted using the NC-200 Automated Cell Counter (Chemometec).

For test [7], the system named is T-cells from three healthy donors. The test is described as follows: Post-stimulation CD4+ and CD8+ activation markers by flow cytometry. The test is classed as cell-based, human. The settings on record: 50 ng/ml OKT3 vs no OKT3, 48 hours, CD38, CD39, CD134, CD137, CD69, CD90. Here is the method: Specific markers of activation on the CD4+ and CD8+ cell populations were measured using flow cytometry over a time course of 3-48 hours. Specifically, the following markers were assessed: CD38 and CD39 (FIG. 12A and FIG. 13A), CD134 and CD137 (FIG. 12B and FIG. 13B), and CD69 and CD90 (FIG. 12C and FIG. 13C).

The test system of test [8] is PBMC from two healthy donors. The test can be described thus: Checkpoint modulators and costimulatory agonist antibodies on T cell phenotype. Format: cell-based, human. Here is the method: Cells were then seeded into a 24-well gas permeable cell culture plate at a density of 5.0×10^5 cells/cm^2. Cells were activated for 48 hours using 50 ng/ml OKT3, a human anti-CD3 monoclonal antibody, and were additionally treated with agents as described below. Following 48 hours in culture, cells were analyzed for phenotype.
Cells were divided into 6 treatment groups, as follows: Ipilimumab (anti-CTLA4), Pembrolizumab (anti-PD1), Tavolixizumab (anti-TNFRSF4), Urelumab (anti-CD137), and Varlilumab (anti-CD27), as well as a no added agent control. For all test groups, cells in each treatment group were cultured in the presence of the monoclonal antibodies at 0.5, 1, 10, or 20 μg/mL.
None of the tested antibodies appeared to affect the memory differentiation state of the T cells. T cell phenotype was assessed for CD4+ and CD8+ cells independently via flow cytometry for markers of activation OX40, 41BB, CD107a, and PD1. Results are shown in FIG. 38 (CD3+), FIG. 39 (CD4+) and FIG. 40 (CD8+).

The mark [9] stands for this setting: cytokine plus 300 IU/mL IL-2 vs IL-2 alone.
Where [10] appears, read: on CD3+, CD4+ and CD8+ T cells, higher concentrations.

Entries after “also recorded” stand apart in the source; their conditions may differ. Residues, ends and D or L forms follow the SMILES beside them. *: point of attachment. Cbz = O=C(OCc1ccccc1)*; CH2F = FC*

For the compound `COC(=O)C[C@H](NC(=O)[C@H](C)NC(=O)[C@@H](NC(=O)OCc1ccccc1)C(C)C)C(=O)CF` [Z-VAD-FMK, carbobenzoxy-valyl-alanyl-aspartyl-[O-methyl]-fluoromethylketone] (Cbz-Val-Ala-Asp(OMe)-CH2F), the “cell growth (total cell number)” value in test [1] (continuous inhibition (replenished each media exchange)) is “showed the greatest cell growth across donors”; in test [1] (transient treatment (day 0 only)), “grew similarly”. The “total viable cell number and viability” value was “outperformed the other conditions; also recorded: outperforming the transient condition” in test [2] (inhibitor continuous, listed as caspase inhibitor) and “outperformed the other conditions” in test [2] (inhibitor transient). Besides, in test [3], the viable cell counts entry is listed as “consistently higher viable cell counts than the DMSO treatment control”. For the same compound, in test [4] (concentrations higher than 0.2 μg/mL, vs IL-2 alone), the “number of CD3+ cells/mL on Day 6” value is listed as “substantially increased the number of CD3+ cells/mL on Day 6”. Moreover, the “percent of naïve and central memory T cells” value in test [4] (vs cultures expanded just with IL-2) is “had no effect on the percent of naïve and central memory T cells”. Besides, the cell viability result in test [5] (SCS culture, 2 μM) was “Cell viability was similarly high”; in test [5] (tumor fragment-derived culture, 2 μM), “cell viability for this condition was also high”. Besides, in test [5] (SCS culture, 2 μM), the “outgrowth of T cells” value is “outgrowth of T cells was not observed for the SCS conditions”. The “outgrowth of cells (fold expansion, total viable cells)” value in test [5] (tumor fragment-derived culture, 2 μM replenished at each media exchange) is reported as “outgrowth of cells was superior in the tumor fragment-derived condition containing the pan-caspase inhibitor”.

IL-15: recombinant cytokine: the “dose response of cell number” value in test [3] (62.5 IU/ml-1000 IU/ml) is given as “dose dependent response, wherein cell number increased with increasing concentration”. The “percent naïve and central memory T cells at Day 6” value in test [4] (cytokine plus 300 IU/mL IL-2) is “measured increase in the percent naïve and central memory T cells”. In addition, the “CD3+ cells/mL on Day 6” value in test [4] (setting [9]) is given as “increase in CD3+ cells/mL on Day 6”.

On to IL-21: recombinant cytokine, for which the “percent naïve and central memory T cells at Day 6” value in test [4] (cytokine plus 300 IU/mL IL-2) is “measured increase in the percent naïve and central memory T cells”. The “CD3+ cells/mL on Day 6” value in test [4] (setting [9]) is on record as “increase in CD3+ cells/mL on Day 6”.

With “OKT3: a human anti-CD3 monoclonal antibody”, the “total cell number and fold expansion” value in test [6] was “supported T cell expansion, but did not substantially impact total cell number; also recorded: observed to be largely similar”. In test [7] (highest for CD38, CD134, CD69), the “upregulation of activation markers on CD8+ T cells” value was “all assessed markers were upregulated to some extent”. In addition, the “upregulation of activation markers on CD4+ T cells” value in test [7] (highest for CD38, CD137, CD69) was “all assessed markers were upregulated to some extent”.

As to Oxelumab: anti-OX40L antibody, the viable cell counts entry in test [3] is reported as “consistently higher viable cell counts than the DMSO treatment control”. Besides, in test [4] (antibody plus IL-2 vs IL-2 alone, MK-1248 at highest concentration tested), the “percent naïve and central memory T cells at Day 6” value is “little effect on the percent of naïve and central memory T cells”. In test [4] (highest concentration tested, 50 μg/mL, vs IL-2 alone), the “CD3+ cells/mL on Day 6” value is reported as “increase in CD3+ cells/mL on Day 6”.

Take Pembrolizumab: anti-PD1 antibody: the PD1 expression entry in test [8] (on CD4 T cells) is “decreased PD1 expression”. Further, in test [3], the viable cell counts entry is given as “consistently higher viable cell counts than the DMSO treatment control”.

As for “Urelumab: an agonist CD137 receptor antibody”, the 41BB expression result in test [8] (on CD4 T cells and CD8+ T cells) is “promoted 41BB expression”.

As to “Varlilumab: an agonist anti-CD27 antibody”, in test [8] (setting [10]), the 41BB expression result was “promoted 41BB and CD107a expression”; the CD107a expression result is “promoted 41BB and CD107a expression”.
